12 compounds from patent publication US11292782B2, “Diarylhydantoin compounds and methods of use thereof” (Nuvation Bio Inc., priority 2018, dated 2022) can be followed below.

Holding throughout (type): cell-based
For assay [1], the target named is T1, Human AR (Homo sapiens (Human), UniProt P10275). The assay is described as follows: AR agonist assay (GRE-LUC luciferase, transfected HEK-293 cells, test article alone). The conditions noted are these: HEK-293 transfected with human AR, read-out: AR Agonist IC50. On the procedure:
(§1) Human AR cDNA cloned into pCMV vector, GRE-LUC, and CMV-renilla-LUC were used to transfect cells. HEK-293 cells (ATCC) were plated at 120,000 cells per well of a 24 well plate in DME+5% csFBS (Fisher Scientific, Waltham, Mass.). The cells were transfected using Lipofectamine (Life Technologies, Carlsbad, Calif.) with 0.25 μg GRE-LUC, 0.010 μg CMV-LUC (renilla luciferase) and 25 ng of the AR. […] Luciferase assay was performed 48 hrs after transfection. Firefly luciferase assay values were normalized to renilla luciferase values and were graphed using graphpad prism software (La Jolla, Calif.). […] The IC50 or EC50 values were determined using non-linear regression and […] logistics fitting.

The target of assay [2] is T1, Human AR. The assay is described as follows: AR antagonist assay (GRE-LUC luciferase, transfected HEK-293 cells, with 0.1 nM R1881). The conditions noted are these: with 0.1 nM R1881. How it is done: as §1
Assay [3] addresses GR (Homo sapiens (Human), UniProt P04150). Kind of assay: GR antagonist assay (GRE-LUC luciferase, transfected COS-7 cells, with 0.1 nM dexamethasone). The conditions noted are these: in the presence of 0.1 nM dexamethasone; for GR antagonist assay, % of vehicle: 10 μM. On the procedure: COS-7 cells (ATCC, Manassas, Va.) were plated in 24 well plates in DME+5% csFBS without phenol red at 70,000 cells/well. Once the cells attached to the plates (typically after overnight incubation after plating), they were transfected in OPTIMEM medium (Life Technologies) using lipofectamine reagent (Life Technologies) with 0.25 μg GRE-LUC, 25 ng pCR3.1 GR, and 10 ng CMV-renilla LUC per well. Twenty-four hours after transfection, the cells were fed with DME+5% csFBS without phenol red (Fisher Scientific, Waltham, Mass.) and treated with the test compounds (1 pM to 10 μM dose range) in the presence of 0.1 nM dexamethasone (Sigma, St. Louis, Mo.). Sixteen to twenty-four hours after treatment, a luciferase assay was performed using the Dual Luciferase assay kit (Promega, Madison, Wis.). Firefly luciferase values were normalized to Renilla luciferase numbers.

Assay [4] concerns the target GFP-AR (Homo sapiens (Human), UniProt P10275). On the procedure:
COS cells plated in chamber slides in DME+5% csFBS without phenol red were transfected with […] GFP-AR using lipofectamine reagent.

Assay [5] relates to COS-7 cells. Kind of assay: Cell proliferation assay, COS-7 (CellTiter-Glo). The following applies: 3 days; for cell proliferation, % of vehicle at 3 μM: COS-7, 3 μM; for cell proliferation, % of vehicle at 10 μM: COS-7, 10 μM. On the procedure: (§2) LNCaP-abl (3,000 cells/well, received from Dr. Myles Brown, Dana Farber Cancer Institute), 22RV1 (1,000 cells/well), LNCaP (5,000 cells/well), or COS (3,000 cells/well) cells were plated in 96 well plates in 50 μl RPMI+10% FBS (Fisher Scientific, Waltham, Mass.). LNCaP, COS, and 22RV1 cells were obtained from ATCC. Cells were treated in RPMI+10% FBS with test articles, ranging from 1 nM to 10 μM. Three days later, viable cells (LNCaP-abl, 22RV1, and COS) were measured by CellTiter-Glo assay (Promega, Madison, Wis.). For LNCaP cells, medium containing test article was changed after 3 days of treatment, and after an additional 3 days of culture, viable cells were measured by CellTiter-Glo assay.
(§3) The LNCaP cell line is androgen responsive with AR and PSA expression. It contains a T877A mutation in the AR. The 22RV1 cell line is positive for AR and PSA with additional AR splice variants and is insensitive to androgen for cell proliferation. The LNCaP-abl cell line expresses both AR and GR but is insensitive to androgen for cell proliferation. COS-7 is used as an AR negative cell line in this experiment.
For orientation: ATP-based viability assays read luminescence as a measure of living cells.

Assay [6] concerns FKBP5 gene expression. Kind of assay: AR activity assay: FKBP5 gene expression (realtime PCR). The conditions noted are these: 1 and 10 μM. On the procedure:
(§4) LNCaP (ATCC) or LNCaP-EnzR (MR49F was received from Dr. Martin Gleave, University of British Columbia) cells were plated in 96 well plates at 15,000-20,000 cells/well in RPMI+1% csFBS without phenol red. Cells were treated 2 days after plating and harvested 18 hours after treatment (for TMPRSS2) or 24 hours after treatment (for PSA and FKBP5). RNA was isolated (cells to ct kit, Life Technologies), cDNA synthesized (cells to ct kit), and expression of TMPRSS2, PSA or FKBP5 and expression of GAPDH were measured using realtime PCR primers and probes (TaqMan probes, Life Technologies) by realtime PCR (ABI 7900, Life Technologies). Relative expression was calculated using ddct method.

Assay [7] relates to LNCaP-abl cells. Kind of assay: Cell proliferation assay, LNCaP-abl (CellTiter-Glo). The following applies: 72 h, 3 days; for activity at 3 µM: read-out: cell proliferation, % of vehicle at 3 μM; for activity at 10 µM: read-out: cell proliferation, % of vehicle at 10 μM. How it is done:
as §2, §3

For assay [8], the system named is PSA gene expression. The assay is described as follows: AR activity assay: PSA gene expression (realtime PCR). The conditions noted are these: 1 and 10 μM. On the procedure:
as §4

Assay [9] deals with LNCaP cells. Kind of assay: Cell proliferation assay, LNCaP (CellTiter-Glo). The conditions noted are these: 6 days. On the procedure: as §2, §3
In assay [10] the test system is 22RV1 cells. Kind of assay: Cell proliferation assay, 22RV1 (CellTiter-Glo). The conditions noted are these: 3 days; for cell proliferation, % of vehicle at 3 μM: 22RV1, 3 μM; for cell proliferation, % of vehicle at 10 μM: 22RV1, 10 μM. How it is done: as §2, §3
Assay [11] has as its system TMPRSS2 expression in LNCaP cells. The assay is described as follows: AR activity assay: TMPRSS2 gene expression in LNCaP cells (realtime PCR). The following applies: 1 and 10 μM, in the presence of 0.1 nM R1881. How it is done: as §4
Assay [12] deals with TMPRSS2 expression in LNCaP-EnzR cells. The assay is described as follows: AR activity assay: TMPRSS2 gene expression in LNCaP-EnzR (MR49F) cells (realtime PCR). The conditions noted are these: enzalutamide resistant LNCaP-EnzR cells, 1 and 10 μM. On the procedure: as §4
For assay [13], the system named is MR49F cells. The assay is described as follows: Cell proliferation assay, MR49F enzalutamide-resistant LNCaP cells (SRB). The conditions noted are these: six days. How it is done:
The outer wells of the 96 well plates were not used for treatment due to potential evaporation. Cells were treated with selected doses of the compounds with the final concentration of DMSO kept at 0.1%. The cells were re-treated three days later. At the end of six days of treatment, the cells were fixed using 40% w/v trichloroacetic acid and a […] (SRB) assay was performed to determine the cell viability.

Setting [14] is: COS cells, GFP-AR, 30 min pre-treatment, then R1881 for four hours.

Structures are written as SMILES. Where two headings read alike, the source gives them in different places. Some results are limits rather than exact numbers.

GR, sequence (P04150 whole entry): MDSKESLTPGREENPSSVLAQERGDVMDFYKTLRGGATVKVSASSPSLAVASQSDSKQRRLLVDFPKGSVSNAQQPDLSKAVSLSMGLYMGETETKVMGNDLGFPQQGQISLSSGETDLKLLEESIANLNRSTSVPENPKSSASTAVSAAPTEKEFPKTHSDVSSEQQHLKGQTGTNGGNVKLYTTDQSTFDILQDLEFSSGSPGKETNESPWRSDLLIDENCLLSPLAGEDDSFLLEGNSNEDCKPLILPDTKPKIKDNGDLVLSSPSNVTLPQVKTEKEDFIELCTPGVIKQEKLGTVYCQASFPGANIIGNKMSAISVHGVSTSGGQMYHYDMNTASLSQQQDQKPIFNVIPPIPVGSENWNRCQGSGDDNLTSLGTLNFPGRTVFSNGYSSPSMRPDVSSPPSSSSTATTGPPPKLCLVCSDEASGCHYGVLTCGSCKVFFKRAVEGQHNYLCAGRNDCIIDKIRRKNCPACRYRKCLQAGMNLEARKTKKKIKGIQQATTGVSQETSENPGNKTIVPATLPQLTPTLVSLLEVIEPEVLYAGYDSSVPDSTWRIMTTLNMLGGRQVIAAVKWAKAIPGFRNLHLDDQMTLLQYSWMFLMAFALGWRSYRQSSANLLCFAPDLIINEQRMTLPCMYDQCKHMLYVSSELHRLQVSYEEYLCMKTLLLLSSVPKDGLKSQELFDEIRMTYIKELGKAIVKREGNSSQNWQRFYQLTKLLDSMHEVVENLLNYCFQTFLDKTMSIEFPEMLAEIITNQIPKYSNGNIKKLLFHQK
GFP-AR, sequence (P10275 whole entry, looked up): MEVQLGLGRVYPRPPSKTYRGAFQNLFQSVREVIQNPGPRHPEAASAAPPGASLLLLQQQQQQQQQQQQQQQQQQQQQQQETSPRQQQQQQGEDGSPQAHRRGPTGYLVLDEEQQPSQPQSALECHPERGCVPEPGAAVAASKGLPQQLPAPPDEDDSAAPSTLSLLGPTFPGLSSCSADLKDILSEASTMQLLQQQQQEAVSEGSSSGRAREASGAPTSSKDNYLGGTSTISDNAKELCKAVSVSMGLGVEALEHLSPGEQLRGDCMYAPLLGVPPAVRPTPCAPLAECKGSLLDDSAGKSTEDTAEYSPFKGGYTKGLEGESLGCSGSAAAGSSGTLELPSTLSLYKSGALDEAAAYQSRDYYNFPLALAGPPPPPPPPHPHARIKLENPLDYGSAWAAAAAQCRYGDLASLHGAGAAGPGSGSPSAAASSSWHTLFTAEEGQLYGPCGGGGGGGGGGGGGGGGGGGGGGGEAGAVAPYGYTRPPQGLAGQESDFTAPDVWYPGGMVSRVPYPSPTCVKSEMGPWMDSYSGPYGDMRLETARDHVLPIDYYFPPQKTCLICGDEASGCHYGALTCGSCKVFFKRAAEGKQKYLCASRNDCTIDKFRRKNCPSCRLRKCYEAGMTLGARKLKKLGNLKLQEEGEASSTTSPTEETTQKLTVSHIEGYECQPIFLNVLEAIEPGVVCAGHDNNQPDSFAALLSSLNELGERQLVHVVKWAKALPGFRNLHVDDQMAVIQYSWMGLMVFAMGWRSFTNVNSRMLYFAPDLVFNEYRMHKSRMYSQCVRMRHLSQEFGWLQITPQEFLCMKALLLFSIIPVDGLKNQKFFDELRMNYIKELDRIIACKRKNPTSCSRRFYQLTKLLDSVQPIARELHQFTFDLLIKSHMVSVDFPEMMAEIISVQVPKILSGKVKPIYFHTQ
T1 sequence (P10275 whole entry): as the sequence (P10275 whole entry, looked up) above

Usually IC50 stands for the concentration that gives 50% inhibition. For `Cn1ccnc1C(=O)NCc1ccc(N2C(=O)N(c3ccc(C#N)c(C(F)(F)F)c3)C(=O)C2(C)C)cc1F` [Compound 1], the EC50 in assay [1] was over 10000 nM. In assay [2], this compound came in with an IC50 of 968 nM.

Take `Cn1ccnc1C(=O)NCc1ccc(N2C(=S)N(c3ccc(C#N)c(C(F)(F)F)c3)C(=O)C2(C)C)cc1F` [Compound 4]: in assay [1], the EC50 was over 10000 nM. This compound also displayed a 50% inhibitory concentration (IC50) in [2] of 386 nM.

`CC1(C)C(=O)N(c2ccc(C#N)c(C(F)(F)F)c2)C(=S)N1c1ccc(CNC(=O)c2cncs2)cc1` [Compound 18]: the EC50 in assay [1] is over 10000 nM. Also, the IC50 in [3] is over 10000 nM; in assay [2], 358 nM.

With `C[C@]1(O)CC[C@H]2[C@@H]3CCC4=CC(=O)CCC4=C3C=C[C@@]21C` [Compound R1881, reference compound], the “AR localization (cytoplasmic or nuclear)” value in [4] was “nuclear”.

Consider `CC1(C)C(=O)N(c2ccc(C#N)c(C(F)(F)F)c2)C(=S)N1c1ccc(CNC(=O)c2ccccn2)c(F)c1` [Compound 8], for which the EC50 in [1] was over 10000 nM. Besides, the “cell proliferation, % of vehicle at 3 μM” value in assay [5] is recorded as 99%; in assay [9], 63%; in [10], 87%. Also, the “cell proliferation, % of vehicle at 10 μM” value was found to be 91% in assay [5], 19% in [9] and 90% in assay [10]. Also, in [6], the FKBP5 gene expression entry was “significant inhibition”. Moreover, in assay [3], the “GR antagonist assay, % of vehicle” value stood at 52%. Also, the activity at 3 µM in [7] is 83%. Further, the activity at 10 µM in [7] was determined as 62%. In addition, the “AR localization (cytoplasmic or nuclear)” value in [4] (setting [14]) is given as “nuclear”. In addition, the IC50 in [2] is 47.2 nM. The PSA gene expression result in assay [8] was “significant inhibition”.

In the case of `CC(C)(C)C(=O)NCc1ccc(N2C(=S)N(c3ccc(C#N)c(C(F)(F)F)c3)C(=O)C2(C)C)cc1F` [Compound 6], the EC50 in assay [1] was over 10000 nM. Besides, in [3], the IC50 was over 10000 nM. In assay [7], the activity at 3 µM stood at 79% and the activity at 10 µM amounted to 101%. This compound also yielded an IC50 in assay [2] of 778 nM.

Regarding `CC1(C)C(=O)N(c2ccc(C#N)c(C(F)(F)F)c2)C(=S)N1c1ccc(CNC(=O)c2ncccn2)cc1` [Compound 19], the EC50 in [1] was over 10000 nM. The 50% inhibitory concentration (IC50) was over 10000 nM in [3] and 453 nM in [2].

Regarding `CNC(=O)c1ccc(N2C(=S)N(c3ccc(C#N)c(C(F)(F)F)c3)C(=O)C2(C)C)cc1F` [Enzalutamide, enzalutamide], the TMPRSS2 expression result in assay [11] was “inhibitory effects”; in assay [12] it was “failed to reduce TMPRSS2 expression”.

For the compound `CC1(C)C(=O)N(c2ccc(C#N)c(C(F)(F)F)c2)C(=S)N1c1ccc(CNC(=O)c2cccnc2)c(F)c1` [Compound 12], the EC50 in assay [1] was over 10000 nM. For the same compound, the IC50 in assay [3] is over 10000 nM. For the same compound, in assay [7], the activity at 3 µM was 95% and the activity at 10 µM came out at 61%. The same compound displayed an IC50 in assay [2] of 108 nM.

In the case of `Cc1ncsc1C(=O)NCc1ccc(N2C(=S)N(c3ccc(C#N)c(C(F)(F)F)c3)C(=O)C2(C)C)cc1F` [Compound 9], the EC50 in [1] is over 10000 nM. Moreover, the “cell proliferation, % of vehicle at 3 μM” value worked out at 53% in assay [13] (3 μM), 92% in [5], 55% in [9] and 77% in assay [10]. For the same compound, the “cell proliferation, % of vehicle at 10 μM” value amounted to 29% in assay [13] (10 μM), 99% in assay [5], 21% in assay [9] and 41% in [10]. Also, in [3], the “GR antagonist assay, % of vehicle” value was 41%. The activity at 3 µM in assay [7] came out at 89%. Further, in assay [7], the activity at 10 µM is 27%. In assay [4] (setting [14]), the “AR localization (cytoplasmic or nuclear)” value is “nuclear”. In addition, inhibition in assay [2] was half-maximal at 49.1 nM (IC50).

As for `CC1(C)C(=O)N(c2ccc(C#N)c(C(F)(F)F)c2)C(=S)N1c1ccc(CNC(=O)c2cncs2)c(Cl)c1` [Compound 25], the IC50 in assay [3] was over 10000 nM. In [7], the activity at 3 µM came to 96% and the activity at 10 µM came to 64%. The compound also gave an IC50 in [2] of 99 nM.

With `Cc1ncsc1C(=O)NCc1ccc(N2C(=S)N(c3ccc(C#N)c(C(F)(F)F)c3)C(=O)C2(C)C)cc1Cl` [Compound 32], in [3], the 50% inhibitory concentration (IC50) is over 10000 nM. Moreover, in assay [7], the activity at 3 µM was found to be 93% and the activity at 10 µM amounted to 62%. Further, it took 120 nM to reach half-maximal inhibition in assay [2] (IC50).
